Experimental data reported in the NIST ThermoML archive (doi:10.1021/je200651r).
± gives the expanded uncertainty stated by the source.

Assays:
[1] = Liquid, Manometric method
[2] = refractive index (Na D-line) (dimensionless); conditions: 298.15 K; 101.33 kPa; Liquid; Standard Abbe refractometry

SMILES	vapor or sublimation pressure ([1]; 343.15 K)	vapor or sublimation pressure ([1]; 353.15 K)	vapor or sublimation pressure ([1]; 363.15 K)	refractive index [2]
ClCCCCl [1,3-dichloropropane]	18.31 ± 0.19 kPa	26.84 ± 0.22 kPa	38.65 ± 0.27 kPa	1.4462 ± 0.0008
CC[N+](=O)[O-] [nitroethane]	22.46 ± 0.23 kPa	32.84 ± 0.29 kPa	47.13 ± 0.37 kPa	1.3898 ± 0.0009
C[N+](=O)[O-] [nitromethane]	34.93 ± 0.31 kPa	50.14 ± 0.41 kPa	70.81 ± 0.53 kPa	1.3794 ± 0.0009
